What was measured:
[1] = tested on: giant foxtail; assay: Test C pre-/postemergence test; type: in vivo, Setaria faberii; settings: for Plant response rating (0 to 100), Foxtail, Giant: 250 g ai/ha
Outline: (§1)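 Compounds in a non-phytotoxic solvent with surfactant applied preemergence to seeded pots and, at the same time, postemergence to plants 2–18 cm tall (1- to 4-leaf stage). Paddy tests: pots flooded to 3 cm, compound applied into the water, depth held throughout.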

[2] = tested on: pigweed; assay: Test C pre-/postemergence test; type: in vivo, Amaranthus retroflexus
Outline: as §1

[3] = tested on: crabgrass; assay: Test A pre-/postemergence greenhouse test; type: in vivo, Digitaria sanguinalis; settings: for Crabgrass, Large plant response rating: 0 to 100 scale; for Plant response rating, Crabgrass, Large: 0 to 100 scale where 0 is no effect and 100 is complete control
Outline: (§2)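 Each test compound, dissolved in a non-phytotoxic solvent mixture with surfactant, was sprayed directly onto seeded soil (loam/sand blend) and, at the same moment, onto seedlings carrying one to two leaves. Around ten greenhouse days later, plants were rated visually for injury relative to untreated controls.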

[4] = tested on: velvetleaf; assay: Test C pre-/postemergence test; type: in vivo, Abutilon theophrasti
Outline: as §1

[5] = tested on: wheat; assay: Test A pre-/postemergence greenhouse test; type: in vivo, Triticum aestivum; settings: for Wheat plant response rating: 0 to 100 scale; for Plant response rating, Wheat: 0 to 100 scale where 0 is no effect and 100 is complete control
Outline: as §2

[6] = tested on: crabgrass; assay: Test C pre-/postemergence test; type: in vivo, Digitaria sanguinalis; settings: for Plant response rating (0 to 100), Crabgrass, Large: 250 g ai/ha
Outline: as §1

[7] = tested on: umbrella sedge; assay: Test C flooded paddy test; type: in vivo, Cyperus difformis; settings: Flood
Outline: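 Ratings were visual and made relative to untreated controls after 13 to 15 greenhouse days.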

[8] = tested on: morningglory; assay: Test C pre-/postemergence test; type: in vivo, Ipomoea coccinea
Outline: as §1

[9] = tested on: eastern black nightshade; assay: Test C pre-/postemergence test; type: in vivo, Solanum ptycanthum
Outline: as §1

[10] = tested on: common (oilseed) sunflower; assay: Test C pre-/postemergence test; type: in vivo, Helianthus annuus
Outline: as §1

[11] = tested on: Surinam grass; assay: Test C pre-/postemergence test; type: in vivo, Brachiaria decumbens
Outline: as §1

[12] = tested on: Goosegrass; assay: Test C pre-/postemergence test; type: in vivo, Eleusin indica; settings: for Plant response rating (0 to 100), Goosegrass: 250 g ai/ha
Outline: as §1

[13] = tested on: barnyardgrass; assay: Test A pre-/postemergence greenhouse test; type: in vivo, Echinochloa crus-galli; settings: for Barnyardgrass plant response rating: 0 to 100 scale; for Plant response rating, Barnyardgrass: 0 to 100 scale where 0 is no effect and 100 is complete control
Outline: as §2

[14] = tested on: corn; assay: Test A pre-/postemergence greenhouse test; type: in vivo, Zea mays; settings: for Corn plant response rating: 0 to 100 scale; for Plant response rating, Corn: 0 to 100 scale where 0 is no effect and 100 is complete control
Outline: as §2

[15] = tested on: Italian ryegrass; assay: Test C pre-/postemergence test; type: in vivo, Lolium multiflorum
Outline: as §1

[16] = tested on: johnsongrass; assay: Test C pre-/postemergence test; type: in vivo, Sorghum halepense; settings: for Plant response rating (0 to 100), Johnsongrass: 250 g ai/ha
Outline: as §1

[17] = tested on: corn; assay: Test C pre-/postemergence test; type: in vivo, Zea mays; settings: for Plant response rating (0 to 100), Corn: 250 g ai/ha
Outline: as §1

[18] = 62 g ai/ha, Preemergence, scale 0 to 100
[19] = Preemergence, 31 g ai/ha, scale 0 to 100 (0 no effect, 100 complete control)
[20] = Postemergence, 125 g ai/ha, 0 is no effect, 100 is complete control
[21] = Postemergence, 500 g ai/ha, 0 is no effect, 100 is complete control
[22] = Preemergence, 125 g ai/ha, 0 no effect, 100 complete control
[23] = 31 g ai/ha, scale 0 to 100 (0 no effect, 100 complete control)
[24] = 62 g ai/ha, scale 0 to 100, 0 no effect, 100 complete control, 13 to 15 days
[25] = 125 g ai/ha, scale 0 to 100, 0 no effect, 100 complete control, 13 to 15 days
[26] = preemergence, 125 g ai/ha, scale 0 (no effect) to 100 (complete control)
[27] = 31 g ai/ha, Preemergence, scale 0 to 100
[28] = 62 g ai/ha, preemergence, scale 0 (no effect) to 100 (complete control)

Cc1cc[n+]([O-])c(S(=O)(=O)C(Cl)c2c(C(F)(F)F)nn(C)c2Cl)c1 (racemic) [Compound 22]
98: Plant response rating, Crabgrass, Large [6, 19]
90: Crabgrass, Large plant response rating [3, 22] | Plant response rating, Crabgrass, Large ([3]; Preemergence, 500 g ai/ha) | Barnyardgrass plant response rating [13, 22]
100: Plant response rating (0 to 100), Foxtail, Giant ([1]; Preemergence) | Pigweed plant response rating [2, 18] | Plant response rating, Pigweed [2, 19] | Crabgrass, Large plant response rating [6, 18] | Plant response rating (0 to 100), Crabgrass, Large ([6]; Preemergence) | Goosegrass plant response rating [12, 18] | Plant response rating, Goosegrass [12, 19] | Plant response rating (0 to 100), Goosegrass ([12]; Preemergence) | Plant response rating, Barnyardgrass ([13]; Preemergence, 500 g ai/ha) | Plant response rating (0 to 100), Corn ([17]; Preemergence)
0: Velvetleaf plant response rating [4, 18] | Plant response rating, Velvetleaf [4, 19] | Wheat plant response rating [5, 20] | Morningglory plant response rating [8, 18] | Plant response rating, Morningglory [8, 19] | Plant response rating, Nightshade [9, 19] | Sunflower plant response rating [10, 18] | Plant response rating, Sunflower [10, 19] | Corn plant response rating [14, 20] | Corn plant response rating [14, 22] | Plant response rating, Ryegrass, Italian [15, 19] | Plant response rating, Corn [17, 19]
40: Crabgrass, Large plant response rating [3, 20] | Wheat plant response rating [5, 21] | Barnyardgrass plant response rating [13, 20] | Ryegrass, Italian plant response rating [15, 18]
30: Corn plant response rating [14, 21] | Corn plant response rating [17, 26]
85: Plant response rating, Sedge, Umbrella [7, 24] | Nightshade plant response rating [9, 18]
80: Foxtail, Giant plant response rating [1, 18] | Plant response rating, Foxtail, Giant [1, 19] | Crabgrass, Large plant response rating [3, 21] | Barnyardgrass plant response rating [13, 21]
50: Plant response rating, Wheat ([5]; Preemergence, 500 g ai/ha)
20: Wheat plant response rating [5, 22] | Plant response rating, Corn ([14]; Preemergence, 500 g ai/ha) | Corn plant response rating [17, 18]
95: Plant response rating, Sedge, Umbrella [7, 25] | Plant response rating, Sedge, Umbrella ([7]; 250 g ai/ha, scale 0 to 100, 0 no effect, 100 complete control, 13 to 15 days)
70: Plant response rating (0 to 100), Johnsongrass ([16]; Preemergence)
10: Plant response rating, Surinam Grass [11, 19] | Johnsongrass plant response rating [16, 18]
60: Plant response rating, Sedge, Umbrella [7, 23] | Surinam Grass plant response rating [11, 18]

Cn1nc(C(F)(F)F)c(C(Cl)S(=O)(=O)c2cccc[n+]2[O-])c1Cl (stereo not drawn) [Compound 12]
50: Barnyardgrass plant response rating [13, 20]
100: Plant response rating (0 to 100), Foxtail, Giant ([1]; Preemergence) | Pigweed plant response rating [2, 27] | Pigweed plant response rating [2, 28] | Plant response rating (0 to 100), Pigweed ([2]; Preemergence, 250 g ai/ha) | Pigweed plant response rating [2, 26] | Plant response rating, Crabgrass, Large ([3]; Preemergence, 500 g ai/ha) | Crabgrass, Large plant response rating [6, 27] | Crabgrass, Large plant response rating [6, 28] | Plant response rating (0 to 100), Crabgrass, Large ([6]; Preemergence) | Crabgrass, Large plant response rating [6, 26] | Plant response rating, Sedge, Umbrella [7, 25] | Plant response rating, Sedge, Umbrella ([7]; 250 g ai/ha, scale 0 to 100 (0 no effect, 100 complete control)) | Nightshade plant response rating [9, 27] | Nightshade plant response rating [9, 28] | Plant response rating (0 to 100), Nightshade ([9]; Preemergence, 250 g ai/ha) | Nightshade plant response rating [9, 26] | Goosegrass plant response rating [12, 27] | Goosegrass plant response rating [12, 28] | Plant response rating (0 to 100), Goosegrass ([12]; Preemergence) | Goosegrass plant response rating [12, 26] | Plant response rating (0 to 100), Johnsongrass ([16]; Preemergence) | Johnsongrass plant response rating [16, 26]
60: Crabgrass, Large plant response rating [3, 20] | Barnyardgrass plant response rating [13, 21]
0: Velvetleaf plant response rating [4, 28] | Plant response rating (0 to 100), Velvetleaf ([4]; Preemergence, 250 g ai/ha) | Velvetleaf plant response rating [4, 26] | Wheat plant response rating [5, 20] | Wheat plant response rating [5, 22] | Morningglory plant response rating [8, 27] | Morningglory plant response rating [8, 28] | Sunflower plant response rating [10, 28] | Sunflower plant response rating [10, 26] | Surinam Grass plant response rating [11, 28] | Corn plant response rating [14, 20] | Corn plant response rating [14, 21] | Corn plant response rating [14, 22] | Ryegrass, Italian plant response rating [15, 27] | Johnsongrass plant response rating [16, 27] | Corn plant response rating [17, 27] | Corn plant response rating [17, 28] | Corn plant response rating [17, 26]
80: Foxtail, Giant plant response rating [1, 27] | Foxtail, Giant plant response rating [1, 28] | Foxtail, Giant plant response rating [1, 26] | Plant response rating (0 to 100), Morningglory ([8]; Preemergence, 250 g ai/ha)
30: Plant response rating, Wheat ([5]; Preemergence, 500 g ai/ha) | Surinam Grass plant response rating [11, 26] | Plant response rating, Corn ([14]; Preemergence, 500 g ai/ha)
45: Plant response rating (0 to 100), Corn ([17]; Preemergence)
20: Plant response rating (0 to 100), Sunflower ([10]; Preemergence, 250 g ai/ha)
90: Plant response rating, Sedge, Umbrella [7, 23] | Barnyardgrass plant response rating [13, 22] | Plant response rating, Barnyardgrass ([13]; Preemergence, 500 g ai/ha)
70: Crabgrass, Large plant response rating [3, 21] | Crabgrass, Large plant response rating [3, 22] | Ryegrass, Italian plant response rating [15, 28] | Ryegrass, Italian plant response rating [15, 26] | Johnsongrass plant response rating [16, 28]
5: Morningglory plant response rating [8, 26]
95: Plant response rating, Sedge, Umbrella [7, 24]
85: Plant response rating (0 to 100), Ryegrass, Italian ([15]; Preemergence, 250 g ai/ha)
40: Wheat plant response rating [5, 21] | Plant response rating (0 to 100), Surinam Grass ([11]; Preemergence, 250 g ai/ha)

— patent US20100298141A1, “SUBSTITUTED PYRIDINE N-OXIDE HERBICIDES” (E. I. DU PONT DE NEMOURS AND COMPANY, priority 2007, published 2010)
